Key:
[1] = logP determination by HPLC on a reversed-phase column (C18), EEC Directive 79/831 Annex V.A8; assay type: physicochemical; conditions: HPLC on reversed-phase column (C18), acetonitrile/water with formic acid, EEC Directive 79/831 Annex V.A8
How it was run: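 Retention on a C18 reversed-phase column (Zorbax Eclipse Plus, 1.8 micron) was used, eluting with acetonitrile/water, each containing formic acid. The gradient ran from 10% to 95% acetonitrile over 4.25 min, then held 1.25 min, at 55° C and 2.0 ml/min, with MS detection.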

[2] = test system: engorged adult female cattle ticks (Boophilus microplus); assay: Boophilus microplus injection test (BOOPMI Inj); assay type: in vivo; conditions: application rate 20 μg/animal; injection into abdomen; assessed after 7 days
Protocol: C. Boophilus microplus-injection Test (BOOPMI Inj)
(§1) Solvent: dimethyl sulphoxide
To produce a suitable preparation of active compound, 10 mg of active compound are mixed with 0.5 ml of solvent, and the concentrate is diluted with solvent to the desired concentration.
1 μl of the active compound solution is injected into the abdomen of 5 engorged adult female cattle ticks (Boophilus microplus). The animals are transferred into dishes and kept in a climate-controlled room.
The activity is assessed after 7 days by laying of fertile eggs. Eggs whose fertility is not visible from the outside are stored in a climate-controlled cabinet until the larvae hatch after about 42 days. An efficacy of 100% means that none of the ticks has laid any fertile eggs; 0% means that all eggs are fertile.

[3] = test system: larvae of the mustard beetle (Phaedon cochleariae); assay: Phaedon cochleariae spray test (PHAECO); assay type: in vivo; conditions: Chinese cabbage leaf discs, after 7 days
How it was run: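 Compound dissolved in acetone/dimethylformamide with alkylaryl polyglycol ether emulsifier, made up in water containing 1000 ppm emulsifier, then diluted to test concentrations and sprayed against mustard beetle larvae. Efficacy (% larvae killed) scored after 7 days.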

[4] = test system: L1 larvae of the Australian sheep blowfly (Lucilia cuprina); assay: Lucilia cuprina test (LUCICU); assay type: in vivo; conditions: application rate 100 ppm; after 2 days
Protocol: E. Lucilia cuprina Test (LUCICU)
as §1
(§2) To produce a suitable preparation of active compound, 10 mg of active compound are mixed with 0.5 ml of dimethyl sulphoxide, and the concentrate is diluted with water to the desired concentration.
About 20 L1 larvae of the Australian sheep blowfly (Lucilia cuprina) are transferred into a test vessel containing minced horsemeat and the active compound preparation of the desired concentration.
After 2 days, the kill in % is determined 100% means that all of the larvae have been killed; 0% means that none of the larvae have been killed.

[5] = test system: adult cat fleas (Ctenocephalides felis); assay: Ctenocephalides felis oral test (CTECFE); assay type: in vivo; conditions: application rate 100 ppm in citrated cattle blood; after 2 days
Protocol: D. Ctenocephalides felis-oral Test (CTECFE)
as §1
To produce a suitable preparation of active compound, 10 mg of active compound are mixed with 0.5 ml of dimethyl sulphoxide. Dilution with citrated cattle blood gives the desired concentration.
About 20 unfed adult cat fleas (Ctenocephalides felis) are placed into a chamber which is closed at the top and bottom with gauze. A metal cylinder whose bottom end is closed with a parafilm is placed onto the chamber. The cylinder contains the blood/active ingredient preparation, which can be imbibed by the fleas through the parafilm membrane.
After 2 days, the kill in % is determined 100% means that all of the fleas have been killed; 0% means that none of the fleas have been killed.

[6] = test system: greenhouse red spider mite (Tetranychus urticae); assay: Tetranychus urticae spray test, OP-resistant (TETRUR); assay type: in vivo; conditions: application rate 100 g/ha; bean leaf discs; after 6 days
How it was run: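 Bean leaf discs carrying all stages of OP-resistant Tetranychus urticae were sprayed with compound formulated in acetone/dimethylformamide and diluted in water with 1000 ppm alkylaryl polyglycol ether emulsifier. Mortality (% efficacy, 100% = all mites killed) scored after 6 days.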

[7] = test system: adult houseflies (Musca domestica); assay: Musca domestica test (MUSCDO); assay type: in vivo; conditions: application rate 100 ppm; after 2 days
Protocol: F. Musca domestica Test (MUSCDO)
as §1, §2
Vessels containing a sponge treated with sugar solution and the active compound preparation of the desired concentration are populated with 10 adult houseflies (Musca domestica).
After 2 days, the kill in % is determined. 100% means that all of the flies have been killed; 0% means that none of the flies have been killed.

[8] = test system: caterpillars of the armyworm (Spodoptera frugiperda); assay: Spodoptera frugiperda spray test (SPODFR); assay type: in vivo; conditions: maize leaf discs, after 7 days
How it was run: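 Maize leaf discs sprayed with compound in acetone/DMF with alkylaryl polyglycol ether emulsifier (1000 ppm) in water, dried, then infested with armyworm caterpillars. Mortality (%) scored after 7 days; 100% = all caterpillars killed, 0% = none killed.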

Row | Compound | logP [1] | efficacy (laying of fertile eggs) [2] [%] | efficacy in % ([3]; application rate 100 g/ha) [%] | efficacy (kill in %) [4] [%] | efficacy (kill in %) [5] [%] | efficacy in % [6] [%] | efficacy (kill in %) [7] [%] | efficacy in % ([8]; application rate 100 g/ha) [%] | efficacy in % ([3]; application rate 500 g/ha) [%] | efficacy in % ([8]; application rate 500 g/ha) [%]
1 | CON=Cc1c(C(F)(F)F)nn(C)c1-n1cc(-c2ccc(Cl)c(C(=O)NC3(C#N)CC3)c2)cn1 (mixture of isomers) [Ic-99] | 3.09 | 100 | 100 | 80 | 100 | 100 | – | – | – | –
2 | O=C(NC1CC1)c1cc(-c2cnn(-c3c(C(F)(F)F)c(C(F)(F)C(F)(F)F)nn3-c3ccccc3)c2)ccc1Cl [Ic-6] | 4.54 | 100 | 100 | 100 | 100 | – | 90 | 100 | – | –
3 | Cn1nc(C(F)(F)C(F)(F)F)c(C(F)(F)F)c1-n1cc(-c2ccc(Cl)c(C(=O)NCc3cccs3)c2)cn1 [Ic-10] | 4.40 | 100 | 100 | 100 | 98 | 100 | – | 100 | – | –
4 | Cc1c(-c2ccc(Cl)c(C(=O)NC3CC3)c2)cnn1-c1c(C(F)(F)F)c(C(F)(F)C(F)(F)F)nn1C [Ic-13] | 3.88 | 100 | 100 | 100 | 100 | 90 | – | 100 | – | –
5 | Cn1nc(C(F)(F)C(F)(F)F)c(C(F)(F)F)c1-n1cc(-c2cccc(C(=O)NCc3ccccc3)c2)cn1 [Ic-17] | 4.31 | 100 | 100 | 100 | 90 | 100 | – | 100 | – | –
6 | Cn1nc(C(F)(F)C(F)(F)F)c(C(F)(F)F)c1-n1cc(-c2cccc(C(=O)NCc3cccs3)c2)cn1 [Ic-20] | 4.20 | 100 | 100 | 100 | 100 | 100 | – | 100 | – | –
7 | Cn1nc(C(F)(F)C(F)(F)F)c(C(F)(F)F)c1-n1cc(-c2ccc(Cl)c(C(=O)Nc3ccncc3)c2)cn1 [Ic-22] | 2.38 | 100 | 100 | 100 | 100 | 100 | – | 100 | – | –
8 | Cn1nc(C(F)(F)C(F)(F)F)c(C(F)(F)F)c1-n1cc(-c2cccc(C(=O)NC3CC3)c2F)cn1 [Ic-33] | – | 100 | – | 100 | 100 | – | 100 | – | 100 | 83
9 | Cn1nc(C(F)(F)C(F)(F)F)c(C(F)(F)F)c1-n1cc(-c2cc(F)cc(C(=O)NC3(C#N)CC3)c2)cn1 [Ic-38] | – | 100 | – | 100 | 100 | – | 100 | – | 100 | 100

From patent US9487489B2, “Halogen-substituted pyrazole derivatives as pest-control agents” (BAYER CROPSCIENCE AKTIENGESELLSCHAFT, priority 2013, dated 2016)
